Source: the Bradley open melting point set (2014)
Where “and” joins values, the source holds several entries; their conditions need not be identical. Identical values can stand only once.

Row | Structure (SMILES) | melting point
1 | COS(C)(=O)=O [Methyl methanesulfonate] | 20 °C
2 | O=C(OCc1ccccc1)c1ccccc1 [benzyl benzoate] | 19 °C
3 | CC(=O)c1ccc(Br)cc1 [p-bromoacetophenone] | 51 °C
4 | CCN(CC)c1ccccc1 [N,N-Diethylaniline] | -38 °C
5 | N#Cc1cc([N+](=O)[O-])ccc1F [2-fluoro-5-nitrobenzonitrile] | 71 °C
6 | Oc1cccc(F)c1 [3-fluorophenol] | 12 °C
7 | Cc1cc(C)c(B(O)O)c(C)c1 [2,4,6-trimethylbenzeneboronic acid] | 124 °C
8 | CC(Br)CBr (stereo not drawn) [1,2-dibromopropane] | -55 °C
9 | CCCCCC(O)CC (stereo not drawn) [3-octanol] | -45 °C
10 | C[Si](C)(C)O[Si](C)(C)C [hexamethyldisiloxane] | -67 °C
11 | CCOc1ccc(OCC)cc1 [p-diethoxybenzene] | 72 °C
12 | CN(C)c1ccc(C=O)c(Cl)c1 [2-chloro-4-dimethylaminobenzaldehyde] | 80 °C
13 | CCCCCCCCCCCCCCCCCCCCCCC [N-tricosane] | 49 °C
14 | CC(C)(C)c1cc(C(C)(C)C)cc(C(C)(C)C)c1 [1,3,5-tri-tert-butylbenzene] | 71 °C
15 | CCCCCCCCCCCCCCCCC [N-heptadecane] | 22 °C
16 | OCCc1ccccc1 [2-Phenyl-Ethanol] | -27 °C
17 | CC1=NN(c2ccccc2)C(=O)/C1=C/c1ccccc1O | 154 °C
18 | Cc1cc(C=O)c(C)n1-c1cc(C(F)(F)F)cc(C(F)(F)F)c1 [OSM-S-36] | 95.5 °C
19 | O=C=Nc1cccc([N+](=O)[O-])c1 [3-nitrophenyl isocyanate] | 52 °C
20 | CC1(CO)NC(C(=O)O)CC2c3ccccc3NC21 (stereo not drawn) | 260 °C
21 | CCCCCN [1-pentylamine] | -55 °C
22 | O=C(O)CCc1cccc(Br)c1 [3-(3-bromophenyl)propionic acid] | 64 °C
23 | NC(=O)/C(=N\Nc1ccc(F)cc1)c1nc2ccccc2s1 | 159 °C
24 | CC(Cl)(Cl)Cl [1,1,1-trichloroethane] | -30 °C
25 | C=CCC1(c2ccccc2)C(=O)NC(=O)NC1=O [phenallymal] | 156 °C

Row | Structure (SMILES) | melting point
26 | ClC(Cl)(Cl)C(Cl)(Cl)Cl [Hexachloroethane] | 192 °C
27 | Nc1ccc(-c2ccccc2)cc1 [4-aminobiphenyl] | 54 °C
28 | O=C(Nc1ccc([N+](=O)[O-])cc1Cl)c1cc(Cl)ccc1O [5-Chloro-N-(2-chloro-4-nitrophenyl)-2-hydroxybenzamide] | 223 °C
29 | Cn1c(=O)c2c(ncn2C)n(C)c1=O [Caffeine] | 238 °C
30 | Cl\C1=C(/Cl)C2(Cl)C3C4CC(C3C1(Cl)C2(Cl)Cl)C5OC45 (stereo not drawn) [dieldrin] | 176 °C
31 | CC1CO1 (stereo not drawn) [propylene oxide] | -112 °C
32 | O=C(O)C(F)(F)C(F)(F)C(F)(F)C(F)(F)C(F)(F)C(F)(F)C(F)(F)C(F)(F)F [Heptadecafluorononanoic acid] | 66.5 °C
33 | CC(=O)c1ccc(N=C=S)cc1 [4-acetylphenyl isothiocyanate] | 79 °C
34 | Clc1cc(Cl)c(Cl)c(Cl)c1Cl [pentachlorobenzene] | 86 °C
35 | O=C1COc2cccnc2N1 [2h-pyrido[3,2-b]-1,4-oxazin-3(4h)-one] | 206 °C
36 | CC1(C)COB(B2OCC(C)(C)CO2)OC1 [bis(neopentyl glycolato)diboron] | 183 °C
37 | O=S(=O)(O)C(F)(F)F [Trifluoromethanesulfonic acid] | -40 °C
38 | CN(C)c1ccc(CNC2=CC(=O)c3ccccc3C2=O)cc1 [2-{[4-(dimethylamino)benzyl]amino}naphthalene-1,4-dione] | 166 °C
39 | Cc1ccc(NC(=O)Nc2ccc(C)cc2)cc1 [1,3-bis(4-tolyl)urea] | 266 °C
40 | Oc1ccc2ccccc2c1 [2-naphthol] | 123 °C and 122 °C
41 | O=Cc1ccccc1 [Benzaldehyde] | -56 °C
42 | CC[C@H]1OC(=O)[C@H](C)[C@@H](O[C@H]2C[C@@](C)(OC)[C@@H](O)[C@H](C)O2)[C@H](C)[C@@H](O[C@@H]2O[C@H](C)C[C@H](N(C)C)[C@H]2O)[C@](C)(O)C[C@@H](C)CN(C)[C@H](C)[C@@H](O)[C@]1(C)O | 114 °C
43 | NC(=O)N1c2ccccc2C=Cc2ccccc21 [carbamazepine] | 192 °C
44 | COc1ccc(C=NO)c(OC)c1 [2,4-dimethoxybenzaldoxime] | 107 °C
45 | CC(=O)Nc1ccc(Br)cc1C [4'-bromo-2'-methylacetanilide] | 156 °C
46 | NC(=O)Oc1ccccc1 [phenyl carbamate] | 151 °C
47 | OB(O)c1ccc(F)cc1C(F)(F)F [4-fluoro-2-(trifluoromethyl)benzeneboronic acid] | 185 °C
48 | C=CC(=O)O [acrylic_acid] | 13 °C
49 | COC(=O)c1cccc(OC(C)=O)c1 [methyl_3-acetoxybenzoate] | 29 °C
50 | ClCc1cccc(CCl)c1 [a,a'-dichloro-m-xylene] | 36 °C

Row | Structure (SMILES) | melting point
51 | Cn1c(=O)c2c(ncn2C)n(C)c1=O [caffeine] | 238 °C (2×) and 235 °C (2×)
52 | O=[N+]([O-])c1ccc(OCCN2CCOCC2)cc1 [4-[2-(4-nitrophenoxy)ethyl]morpholine] | 80 °C
53 | COc1ccc2[nH]c(C)cc2c1 [5-methoxy-2-methylindole] | 87 °C
54 | O=C1C=C(NCNc2ccccn2)C(=O)c2ccccc21 [2-{[(pyridin-2-ylamino)methyl]amino}naphthalene-1,4-dione] | 135 °C
55 | N#CCc1ccc(C#N)cc1 [p-cyano_phenylacetonitrile] | 100 °C
56 | C=CCCCCCCCCCCCC [1-tetradecene] | -12 °C
57 | Oc1c(Cl)c(Cl)c(Cl)c(Cl)c1Cl [Pentachlorophenol] | 174 °C
58 | CCCCNCC(O)c1ccc(O)cc1 (stereo not drawn) [bamethan] | 124 °C
59 | COc1ccc(/N=N/c2c(N)nn3c(C(F)(F)F)cc(C)nc23)cc1 | 159 °C
60 | NCc1ccccc1 [1-Phenylmethanamine] | -46 °C
61 | CC[C@H]1OC(=O)[C@H](C)[C@@H](O[C@@H]2C[C@](C)(OC)[C@H](O)[C@@H](C)O2)[C@H](C)[C@@H](O[C@@H]2O[C@H](C)C[C@H](N(C)C)[C@H]2O)[C@](C)(OC)C[C@@H](C)C(=O)[C@H](C)[C@@H](O)[C@]1(C)O [Clarithromycin] | 218 °C
62 | CCOC(=O)N1c2ccccc2C=CC1OCC (stereo not drawn) [2-ethoxy-1-ethoxycarbonyl-1,2-dihydroquinoline] | 65 °C
63 | CC(=O)c1ccccc1C(N)=O [o-acetylbenzamide] | 122 °C
64 | ClC1C(Cl)C(Cl)C(Cl)C(Cl)C1Cl (stereo not drawn) [Lindane] | 112 °C
65 | CCCCCCCCOc1ccc(N(NC(=O)OC(C)(C)C)C(=O)OC(C)(C)C)cc1OCCCCCCCC | 56 °C
66 | O=Cc1ccc(-c2ccccc2)cc1 [p-phenylbenzaldehyde] | 60 °C
67 | COC(=O)[C@]1(C(=O)O)[C@@H]2CCC[C@@H]21 | 137 °C
68 | Cc1ccc(C)c(N)c1 [2,5-dimethylaniline] | 15 °C
69 | O=C(Oc1ccccc1)c1ccccc1C(=O)Oc1ccccc1 [diphenyl phthalate] | 75 °C
70 | ClC(Cl)=C(Cl)C(Cl)=C(Cl)Cl [hexachloro-1,3-butadiene] | -21 °C
71 | c1ccc(Cc2ccccc2)cc1 [diphenylmethane] | 24 °C
72 | CI [iodomethane] | -66 °C
73 | CCCOC(=O)c1ccc(O)cc1 [Propyl 4-hydroxybenzoate] | 96.5 °C
74 | CC(C)(C)CCl [neopentyl chloride] | -20 °C
75 | CC12CCC(/C(=C/N(Cl)c3ccccc3)C1=O)C2(C)C (stereo not drawn) | 103 °C

Row | Structure (SMILES) | melting point
76 | O=C(O)CC(O)(CC(=O)O)C(=O)O [citric acid anhydrous] | 153 °C
77 | CCOC(=O)/C(C#N)=C\c1ccc(-c2ccccc2OC)o1 [Ethyl (2Z)-2-cyano-3-[5-(2-methoxyphenyl)-2-furyl]acrylate] | 121 °C
78 | CCCCCOCCCCC [pentyl_ether] | -69 °C
79 | CC(C)(C)N [2-Methylpropan-2-amine] | -67 °C
80 | N/N=C/c1ccccc1O [salicylaldehyde hydrazone] | 97 °C
81 | COc1ccc(C=C[N+](=O)[O-])cc1OCc1ccccc1 [2-(benzyloxy)-1-methoxy-4-(2-nitrovinyl)benzene] | 120 °C
82 | CCOc1ccc(NC(C)=O)cc1 [N-(4-Ethoxyphenyl)acetamide] | 134 °C
83 | Cc1ccc(N2C(=O)C=CC2=O)cc1Cl [1-(3-Chloro-4-methylphenyl)-1H-pyrrole-2,5-dione] | 140 °C
84 | Clc2cccc(Cl)c2N=C1/NCCN1 [clonidine] | 130 °C
85 | OCc1ccc(F)c(B(O)O)c1 [2-fluoro-5-(hydroxymethyl)benzeneboronic acid] | 71 °C
86 | Cc1ccc2c(c1)no[n+]2[O-] [5-Methylbenzofurazan oxide] | 96 °C
87 | O=Cc1ccc2c(c1)OCCO2 [1,4-benzodioxane-6-carboxaldehyde] | 50 °C
88 | CCCCC1CCCCC1 [butylcyclohexane] | -75 °C
89 | OB(O)c1cc(F)c(F)c(F)c1 [3,4,5-trifluorobenzeneboronic acid] | 277 °C
90 | O=C2\C(=C(/N(N2c1ccccc1)C)C)N(C)C [aminopyrine] | 108 °C
91 | O=C1CCC(N2C(=O)c3ccccc3C2=O)C(=O)N1 (stereo not drawn) [2-(2,6-Dioxopiperidin-3-yl)-1H-isoindole-1,3(2H)-dione] | 270 °C
92 | O=C(OCc1ccccc1)c1ccccc1 [Benzyl Benzoate] | 21 °C
93 | CCC1CO1 (stereo not drawn) [1,2-butene oxide] | -130 °C and -129 °C
94 | Oc1ccc(cc1)C(CC)=C(/CC)c2ccc(O)cc2 [Diethylstilbestrol] | 170 °C
95 | CCCCCCC(=O)O [heptanoic acid] | -8 °C
96 | CN1C(=O)CCC(N2C(=O)c3ccccc3C2=O)C1=O (stereo not drawn) [N-Methylthalidomide] | 159 °C
97 | C=COCCCC [N-butyl vinyl ether] | -113 °C
98 | O=C(O)c1cccnc1 [Nicotinic acid] | 237 °C
